Laboratory results published in patent US20250084074A1, “SUBSTITUTED HETEROCYCLES AS HSET INHIBITORS” (MERCK PATENT GMBH, priority 2022, published 2025).
pIC50: −log10 of the molar value. Structures can show the parent of a compound that is named as a salt.

target: HSET full length protein (Homo sapiens (Human), UniProt Q9BW19); test: HSET ADP-Glo Assay S - 3 μM ATP; assay type: biochemical; conditions: 5 nM HSET, 70 μg/mL microtubule, 80 min at rt, read-out: COMBINED HSET ADP GLO IC50
Outline: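 ADP-Glo luminescence read-out: ATPase reaction at 3 μM ATP, 80 min at room temperature, after a 10 min compound preincubation. Enzyme was full-length human HSET at 5 nM, stimulated by 70 μg/mL paclitaxel-stabilised bovine microtubules in HEPES pH 6.8 buffer with MgCl2, EGTA, Triton X-100 and DTT.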

Chain of HSET full length protein (Q9BW19 whole entry): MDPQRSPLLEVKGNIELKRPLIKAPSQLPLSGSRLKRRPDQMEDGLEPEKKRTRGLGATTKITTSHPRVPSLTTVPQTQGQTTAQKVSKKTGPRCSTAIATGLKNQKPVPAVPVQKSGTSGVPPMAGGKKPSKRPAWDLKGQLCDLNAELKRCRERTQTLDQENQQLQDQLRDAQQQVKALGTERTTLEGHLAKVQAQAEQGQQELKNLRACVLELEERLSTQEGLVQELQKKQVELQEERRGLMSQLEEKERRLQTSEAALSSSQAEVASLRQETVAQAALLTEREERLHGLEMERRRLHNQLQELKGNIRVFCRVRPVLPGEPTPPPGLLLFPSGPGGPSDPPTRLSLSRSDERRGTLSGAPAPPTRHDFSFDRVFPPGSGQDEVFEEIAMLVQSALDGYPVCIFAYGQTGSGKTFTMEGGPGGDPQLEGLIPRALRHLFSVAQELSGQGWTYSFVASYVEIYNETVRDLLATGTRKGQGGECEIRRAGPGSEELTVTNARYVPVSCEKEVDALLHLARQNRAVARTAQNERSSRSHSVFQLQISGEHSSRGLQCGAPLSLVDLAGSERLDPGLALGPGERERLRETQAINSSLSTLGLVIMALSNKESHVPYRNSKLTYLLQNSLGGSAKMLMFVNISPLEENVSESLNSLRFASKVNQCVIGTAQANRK

Row | SMILES | pIC50
1 | Cc1nc(-c2cccc(C(=O)NCCC(=O)Nc3nc(C)c(C(=O)OCC4CC4)s3)c2)no1 [Example 35, Cyclopropylmethyl 4-methyl-2-(3-(3-(5-methyl-1,2,4-oxadiazol-3-yl)benzamido)propanamido)thiazole-5-carboxylate] | 7.51
2 | Cc1nc(-c2ccc3ccnc(NCCC(=O)Nc4nc(C)c(C5(C(F)(F)F)CC5)s4)c3c2)no1 [Example 52] | 6.82
3 | CCCOC(=O)c1sc(NC(=O)CCNC(=O)c2cccc(-c3noc(C)n3)n2)nc1C [Example 276, Propyl 4-methyl-2-(3-{[6-(5-methyl-1,2,4-oxadiazol-3-yl)pyridin-2-yl]formamido}propanamido)-1,3-thiazole-5-carboxylate] | 7.43
4 | CCCOC(=O)n1cc(NC(=O)CCNc2nccc3ccc(-c4noc(C)n4)cc23)nc1C [Example 257, Propyl 2-methyl-4-(3-{[7-(5-methyl-1,2,4-oxadiazol-3-yl)isoquinolin-1-yl]amino}propanamido)-1 H-imidazole-1-carboxylate] | 7.33
5 | CCOC(=O)c1sc(NC(=O)CC(NC(=O)c2cccc(-c3noc(C)n3)c2)C2CCN(C)CC2)nc1C (stereo not shown) [Example 147, 4-(3-((5-(ethoxycarbonyl)-4-methylthiazol-2-yl)amino)-1-(3-(5-methyl-1,2,4-oxadiazol-3-yl)benzamido)-3-oxopropyl)-1-methylpiperidin-1-ium formate] | 6.54
6 | CCOC(=O)c1sc(NC(=O)C[C@@H](C)NC(=O)c2cccc(-c3noc(C)n3)c2)nc1C [Example 142, Ethyl-(R)-4-methyl-2-(3-(3-(5-methyl-1,2,4-oxadiazol-3-yl)benzamido)butanamido)thiazole-5-carboxylate] | 6.54
7 | CCOC(=O)c1sc(NC(=O)CCNC(=O)c2cc(Cl)cc(-c3noc(C)n3)c2)nc1C [Example 24, Ethyl 2-(3-(3-chloro-5-(5-methyl-1,2,4-oxadiazol-3-yl)benzamido)-propanamido)-4-methylthiazole-5-carboxylate] | 7.26
8 | CCc1nc(NC(=O)CCNC(=O)c2cccc(-c3noc(C)n3)c2)sc1C(=O)OC [Example 90, Methyl 4-ethyl-2-[3-[[3-(5-methyl-1,2,4-oxadiazol-3-yl)benzoyl]amino]propanoylamino]thiazole-5-carboxylate] | 6.25
9 | CNCCC[C@@H](CC(=O)Nc1nc(C)c(C(=O)OC2CCCC2)s1)Nc1nccc2ccc(-c3noc(C)n3)cc12 [Example 165, Cyclopentyl (S)-4-methyl-2-(3-((7-(5-methyl-1,2,4-oxadiazol-3-yl)isoquinolin-1-yl)amino)-6-(methylamino)hexanamido)thiazole-5-carboxylate] | 7.64
10 | CCCOC(=O)c1sc(C(=O)N2CC[C@H](NC(=O)c3cccc(-c4noc(C)n4)c3)C2)nc1C [Example 240, Propyl (S)-4-methyl-2-(3-(3-(5-methyl-1,2,4-oxadiazol-3-yl)benzamido)pyrrolidine-1-carbonyl)thiazole-5-carboxylate] | 7.01
11 | Cc1nc(-c2ccc3ccnc(NC[C@@H](O)C(=O)Nc4nc(C)c(C(C)(C)C)s4)c3c2)no1 [Example 190, (R)-N-(5-(tert-butyl)-4-methylthiazol-2-yl)-2-hydroxy-3-((7-(5-methyl-1,2,4-oxadiazol-3-yl)isoquinolin-1-yl)amino)propanamide] | 6.14
12 | CCOC(=O)c1sc(NC(=O)CCNC(=O)c2cccc(-c3cnco3)c2)nc1C [Example 6, Ethyl 4-methyl-2-(3-(3-(oxazol-5-yl)benzamido)propanamido)thiazole-5-carboxylate] | 6.21
13 | Cc1nc(-c2ccc3ccnc(N[C@H]4CCN(C(=O)N(C)c5nc(C)c(C(=O)OC(C)(C)C)s5)C4)c3c2)no1 [Example 227, tert-Butyl 4-methyl-2-[methyl-[(3S)-3-[[7-(5-methyl-1,2,4-oxadiazol-3-yl)-1-isoquinolyl]amino]pyrrolidine-1-carbonyl]amino]thiazole-5-carboxylate] | 7.06
